In patent publication US12285395B2, “Pharmaceutical composition for preventing or treating allodynia caused by anticancer agents” (UNIVERSITY-INDUSTRY COOPERATION GROUP OF KYUNG HEE …, priority 2018, dated 2025):

Legend:
spinal WDR neurons = test: In vivo extracellular recording of spinal WDR neurons after oxaliplatin; set-up: species or system Sprague Dawley (SD) rats
Procedure: (§1) Seven-week-old male Sprague Dawley (SD) rats (180 g to 210 g, 95 rats total, Young Bio, Gyeonggi, Korea) were fed freely with feed and water in cages. The room temperature was maintained at 23±2° C. and a 12 h/12 h contrast cycle was maintained. All procedures described in the present disclosure were approved by the Animal Care and Use Committee of Kyunghee University (KHUASP[SE]-18-153) and followed the guidelines of the International Pain Research Association.
Oxaliplatin (Wako Pure Chemical Industries, Osaka, Japan) was dissolved in a 5% glucose solution at a concentration of 2 mg/mL and injected intraperitoneally at a dose of 6 mg/kg. The same volume of 5% glucose solution (i.p.) was administered to a control. […]
All data are expressed as mean±S.E.M. (Standard error of the mean). The data in FIG. 4 was analyzed by a paired t-test (FIGS. 4A and 4B) or an unpaired t-test (FIG. 4C). The data in FIGS. 5 and 6 were expressed as mean±S.E.M. and analyzed by a Bonferroni post-test after one-way ANOVA to evaluate a statistical difference between groups. The data in FIG. 7A were analyzed using Dunnett's multiple comparisons test after two-way ANOVA. […]

[1] = tested on: oxaliplatin-induced cold allodynia; test: Acetone drop test, oxaliplatin-induced cold allodynia, intraperitoneal administration; type: in vivo, Sprague Dawley (SD) rats; settings: for effect on oxaliplatin-induced cold allodynia: all three doses 10, 20 and 40 mg/kg i.p., 30, 60, 120 min after injection (FIG. 5A, FIG. 6)
Procedure: (§2) Cinnamic acid (trans-cinnamic acid, Wako Pure Chemical Industries, Osaka, Japan) and cinnamaldehyde (Wako Pure Chemical Industries, Osaka, Japan) were dissolved in 10% dimethyl sulfoxide (DMSO, Sigma) (adjusted to pH 7 with 2 M HCl and 5 M NaOH) and 1% Tween 20 (Sigma), respectively. The final volume of 10% DMSO and 1% Tween 20 used in the experiment was […] rat. Cinnamic acid and cinnamaldehyde (10 mg/kg, 20 mg/kg, and 40 mg/kg) (i.p.) at different concentrations were administered to rats with cold allodynia and mechanical allodynia.
as §1
(§3) In order to measure cold allodynia and mechanical allodynia, according to a previous method (Flatters, S J; Bennett, G J Ethosuximide reverses paclitaxel- and vincristine-induced painful peripheral neuropathy. Pain 2004, 109, 150-161), an acetone drop test and a von Frey filament test (up-down method, Linton Instrumentation, Norfolk, UK) were performed, respectively. The rats were trained for one week before the start of the experiment to adapt to the touch and the experimental procedure. The rats were stabilized for 30 min before testing in a clear plastic box (20 cm×20 cm×14 cm) with a wire mesh bottom, while not recognizing the injection of oxaliplatin and other drugs.
Acetone was dripped 5 times on the right hind paw, and the total frequency of licking and shaking of the soles was measured as an average per time.
(§4) For the mechanical allodynia test, paw withdrawal thresholds were measured in the right hind paw using a von Frey filament. Dixon's up-down method and Chaplan's calculation method were used, and a withdrawal threshold of 15 g was measured as a cut-off. In order to confirm the effects of cinnamaldehyde and cinnamic acid at different concentrations over time, the behavioral experiment was performed before injection of cinnamic acid and cinnamaldehyde (time point of 0 min) and at time points of 30 min, 60 min, and 120 min after injection.
(§5) Oxaliplatin (Wako Pure Chemical Industries, Osaka, Japan) was dissolved in a 5% glucose solution at a concentration of 2 mg/mL and injected intraperitoneally at a dose of 6 mg/kg. The same volume of 5% glucose solution (i.p.) was administered to a control.
(§6) All data are expressed as mean±S.E.M. (Standard error of the mean). The data in FIG. 4 was analyzed by a paired t-test (FIGS. 4A and 4B) or an unpaired t-test (FIG. 4C). The data in FIGS. 5 and 6 were expressed as mean±S.E.M. and analyzed by a Bonferroni post-test after one-way ANOVA to evaluate a statistical difference between groups. The data in FIG. 7A were analyzed using Dunnett's multiple comparisons test after two-way ANOVA. The 95% reliability was considered to be statistically significant.

[2] = tested on: oxaliplatin-induced mechanical allodynia; test: von Frey filament test (up-down method), oxaliplatin-induced mechanical allodynia, intraperitoneal administration; type: in vivo, Sprague Dawley (SD) rats
Procedure: as §2, §1, §3, §4, §5, §6

[3] = tested on: cold allodynia induced by vincristine; test: Cold allodynia (acetone application), vincristine animal model, oral cinnamic acid; type: in vivo, c57/bl6 mice
Procedure: Six-week-old mice (c57/bl6 mice) were prepared as an experimental animal. Vincristine at a concentration of 1 mg/mL was injected intraperitoneally for 7 consecutive days at 0.1 mg/kg. Significant pain was observed from about 10 days after the first injection. The reaction that occurred by applying about 20 μL of acetone to the soles of both rear paws of the experimental animal was observed and recorded for about 15 s. Behaviors that are criteria for recording are an avoidance reaction, a behavior of shaking the soles of the paw, and a behavior of licking the soles of the paw. The evaluation was repeated a total of three times, and the average of the number of recorded behaviors was confirmed. Experimental animals induced with allodynia were selected through a pre-behavioral experiment and orally administered with 50 mg/kg and 100 mg/kg of cinnamic acid, and the effects after 1 h and 2 h were confirmed.

[4] = tested on: mechanical allodynia induced by paclitaxel; test: Mechanical allodynia (von Frey filament 0.4 g), paclitaxel animal model, oral cinnamic acid; type: in vivo, c57/bl6 mice; settings: mice
Procedure: Six-week-old mice (c57/bl6 mice) were prepared as an experimental animal. Paclitaxel (Sigma-Aldrich) dissolved at a concentration of 6 mg/mL in a 1:1 solution of Cremophor EL and ethanol was diluted to a concentration of 2 mg/mL and intraperitoneally injected 4 times at 2 mg/kg. The dosage was administered every other day on days 0, 2, 4, and 6. Significant pain was observed from about 10 days after the first dosage. The number of reactions was recorded by stimulating the soles of both hind paws of the experimental animal 10 times using a von Frey filament at a pressure of 0.4 g. The behaviors that are criteria for recording are an avoidance reaction and a behavior of licking the soles of the paw. The recording for both paws was averaged and confirmed. As a pre-behavioral experiment, 50 mg/kg and 100 mg/kg of cinnamic acid was orally administered to experimental animals induced with allodynia, and the effects after 1 h and 2 h were confirmed.

[5] = tested on: mechanical allodynia induced by oxaliplatin; test: Mechanical allodynia (von Frey filament 0.4 g), oxaliplatin animal model, oral cinnamic acid; type: in vivo, c57/bl6 mice; settings: mice, 10 mg/kg oral (FIG. 1)
Procedure: (§7) Six-week-old mice (c57/bl6 mice) were prepared as an experimental animal.
(§8) Oxaliplatin (Sigma-Aldrich) dissolved in a 5% glucose solution at a concentration of 2 mg/mL was singly administered intraperitoneally to the experimental animal in an amount of 6 mg/kg. Significant pain was observed from about 3 days after intraperitoneal administration.
The number of reactions was recorded by stimulating the soles of both hind paws of the experimental animal 10 times using a von Frey filament at a pressure of 0.4 g.
The behaviors that are criteria for recording are an avoidance reaction and a behavior of licking the soles of the paw. The recording for both paws was averaged and confirmed.
(§9) Experimental animals induced with allodynia were selected through a pre-behavioral experiment, and the effects were confirmed at 2 h after oral administration of 10 mg/kg of cinnamic acid.

[6] = tested on: mechanical allodynia induced by vincristine; test: Mechanical allodynia (von Frey filament 0.4 g), vincristine animal model, oral cinnamic acid; type: in vivo, c57/bl6 mice; settings: mice
Procedure: Six-week-old mice (c57/bl6 mice) were prepared as an experimental animal. Vincristine at a concentration of 1 mg/mL was injected intraperitoneally for 7 consecutive days at 0.1 mg/kg. Significant pain was observed from about 10 days after the first injection. The number of reactions was recorded by stimulating the soles of both hind paws of the experimental animal 10 times using a von Frey filament at a pressure of 0.4 g. The behaviors that are criteria for recording are an avoidance reaction and a behavior of licking the soles of the paw. The recording for both paws was averaged and confirmed. Experimental animals induced with allodynia were selected through a pre-behavioral experiment and orally administered with 50 mg/kg and 100 mg/kg of cinnamic acid, and the effects after 1 h and 2 h were confirmed.

[7] = tested on: cold allodynia induced by paclitaxel; test: Cold allodynia (acetone application), paclitaxel animal model, oral cinnamic acid; type: in vivo, c57/bl6 mice
Procedure: Six-week-old mice (c57/bl6 mice) were prepared as an experimental animal. Paclitaxel (Sigma-Aldrich) dissolved at a concentration of 6 mg/mL in a 1:1 solution of Cremophor EL and ethanol was diluted to a concentration of 2 mg/mL and intraperitoneally injected 4 times at 2 mg/kg. The dosage was administered every other day on days 0, 2, 4, and 6. Significant pain was observed from about 10 days after the first dosage. The reaction that occurred by applying about 20 μL of acetone to the soles of both rear paws of the experimental animal was observed and recorded for about 15 s. Behaviors that are criteria for recording are an avoidance reaction, a behavior of shaking the soles of the paw, and a behavior of licking the soles of the paw. The evaluation was repeated a total of three times, and the average of the number of recorded behaviors was confirmed. As a pre-behavioral experiment, 50 mg/kg and 100 mg/kg of cinnamic acid was orally administered to experimental animals induced with allodynia, and the effects after 1 h and 2 h were confirmed.

[8] = tested on: cold allodynia induced by oxaliplatin; test: Cold allodynia (acetone application), oxaliplatin animal model, oral cinnamic acid; type: in vivo, c57/bl6 mice
Procedure: as §7, §8
The reaction that occurred by applying about 20 μL of acetone to the soles of both rear paws of the experimental animal was observed and recorded for about 15 s.
Behaviors that are criteria for recording are an avoidance reaction, a behavior of shaking the soles of the paw, and a behavior of licking the soles of the paw. The evaluation was repeated a total of three times, and the average of the number of recorded behaviors was confirmed.
as §9

[9] = 10, 20 and 40 mg/kg i.p., 30, 60, 120 min after injection (FIG. 5B, FIG. 6)

O=C1[O][Pt]2([NH][C@@H]3CCCC[C@H]3[NH]2)[O]C1=O [oxaliplatin, reference compound]
number of spike responses of WDR neurons to mechanical (brush, press, pinch) and cold (acetone drop) stimulations (spinal WDR neurons; after oxaliplatin 6 mg/kg i.p. vs 5% glucose control (FIGS. 4C to 4F)): significantly increased | induction of cold allodynia (acetone drop) ([1]; oxaliplatin 6 mg/kg i.p. single injection, day 4, p<0.001 vs before (FIG. 4A)): significantly induced | induction of mechanical allodynia (von Frey) ([2]; oxaliplatin 6 mg/kg i.p. single injection, day 4, p<0.001 vs before (FIG. 4B)): significantly induced

O=CC=Cc1ccccc1 [cinnamaldehyde, reference compound]
effect on oxaliplatin-induced cold allodynia [1]: did not have relief effects | effect on oxaliplatin-induced mechanical allodynia [2, 9]: did not have relief effects

O=C(O)/C=C/c1ccccc1 [cinnamic acid]
time after administration up to which pain relief effect on cold allodynia was shown ([3]; high dose 100 mg/kg p.o.): up to 1 h | pain relief effect on cold allodynia ([3]; mice, 50 mg/kg oral (FIG. 3)): no significant pain relief effect | pain relief effect on cold allodynia compared to control ([3]; mice, 100 mg/kg oral, after 1 h (FIG. 3)): significant pain relief effect | increased activity of WDR neurons after oxaliplatin injection (brush, press, pinch, acetone drop stimulations) (spinal WDR neurons; 20 mg/kg i.p., day 4 after oxaliplatin, vs 10% DMSO control (FIGS. 7A to 7D)): significantly decreased | pain relief effect on mechanical allodynia ([4]; 50 mg/kg oral (FIG. 2)): no significant pain relief effect | pain relief effect on mechanical allodynia compared to control ([4]; 100 mg/kg oral (FIG. 2)): no significant pain relief effect | pain relief effect on mechanical allodynia compared to control (vehicle) [5]: no significant pain relief effect | time point at which the effect on cold allodynia disappeared ([1]; 10 mg/kg i.p. (FIG. 5A)): 120 min | pain relief effect on cold allodynia of 20 mg/kg relative to 40 mg/kg ([1]; 20 mg/kg i.p. vs 40 mg/kg i.p. (control vs. 20 mg/kg p<0.001, 40 mg/kg p<0.05) (FIG. 5A)): slightly stronger | effect on oxaliplatin-induced cold allodynia [1]: had effects on cold allodynia | optimal dose for alleviating cold allodynia and mechanical allodynia caused by oxaliplatin ([1]; intraperitoneal administration, doses tested 10, 20, 40 mg/kg): 20 mg/kg | pain relief effect on mechanical allodynia ([6]; 50 mg/kg oral (FIG. 3)): no significant pain relief effect | pain relief effect on mechanical allodynia compared to control ([6]; 100 mg/kg oral (FIG. 3)): no significant pain relief effect | effect on oxaliplatin-induced mechanical allodynia ([2]; 10 mg/kg i.p., 60 min after injection (FIG. 5B)): remarkable effect | anti-allodynic effect on mechanical allodynia ([2]; 20 mg/kg i.p., all time points, compared with 10 and 40 mg/kg (FIG. 5B)): strongest anti-allodynic effect among the three doses | effect on oxaliplatin-induced mechanical allodynia [2, 9]: significantly alleviated | time after administration up to which pain relief effect on cold allodynia was shown ([7]; high dose 100 mg/kg p.o.): up to 1 h | pain relief effect on cold allodynia ([7]; mice, 50 mg/kg oral (FIG. 2)): no significant pain relief effect | pain relief effect on cold allodynia compared to control ([7]; mice, 100 mg/kg oral, after 1 h (FIG. 2)): significant pain relief effect | time after administration up to which pain relief effect on cold allodynia was shown ([8]; low dose 10 mg/kg p.o.): up to 2 h | pain relief effect on cold allodynia compared to control (vehicle) ([8]; mice, 10 mg/kg oral, 2 h after administration (FIG. 1)): significant pain relief effect
